Assay results taken from ChEMBL document CHEMBL3877286, “Green fluorescent protein chromophore derivatives as a new class of aldose reductase inhibitors” (Eur J Med Chem, 2017).

Tests used:
[1] = target: T1, Aldo-keto reductase family 1 member B1 (Homo sapiens, UniProt P15121); assay: Inhibition of recombinant human ALR2 assessed as reduction in NADPH oxidation measured for 5 mins in presence of D,L-glyceraldehyde by spectrophotometric method
[2] = target: T1, Aldo-keto reductase family 1 member B1; assay: Inhibition of recombinant human ALR2 assessed as reduction in NADPH oxidation at 13 uM measured for 5 mins in presence of D,L-glyceraldehyde by spectrophotometric method relative to control
[3] = target: T1, Aldo-keto reductase family 1 member B1; assay: Potency index, ratio of sorbinil IC50 to compound IC50 for recombinant human ALR2

| SMILES | IC50 [1] [µM] | inhibition [2] [%] | Ratio IC50 [3] |
| --- | --- | --- | --- |
| CCOC(=O)COc1ccc(/C=C2\N=C(C)N(CC(=O)OCC)C2=O)cc1 | 109 |  |  |
| CC1=N/C(=C\c2ccc(OCC(=O)O)cc2)C(=O)N1CC(=O)O | 0.31 |  |  |
| CC1=N/C(=C\c2cc(C)c(O)c(C)c2)C(=O)N1CC(=O)O | 0.13 |  |  |
| CC1=N/C(=C\c2ccc(F)cc2)C(=O)N1CC(=O)O | 0.65 |  |  |
| CC1=N/C(=C\c2ccccc2)C(=O)N1CC(=O)O | 0.58 |  |  |
| CCOC(=O)CN1C(=O)/C(=C/c2ccc(O)cc2)N=C1C | 23 |  |  |
| CCOC(=O)CN1C(=O)/C(=C/c2ccccc2)N=C1C | 112 |  |  |
| CCOC(=O)CN1C(=O)/C(=C/c2ccc(Cl)cc2)N=C1C |  | 16 |  |
| COc1ccc(/C=C2\N=C(C)N(CC(=O)O)C2=O)cc1 | 0.51 |  |  |
| CC1=N/C(=C\c2ccc(Br)cc2)C(=O)N1CC(=O)O | 0.24 |  |  |
| CC1=N/C(=C\c2cccc3ccccc23)C(=O)N1CC(=O)O | 0.54 |  |  |

The remaining compounds from weak to strong by IC50 [1], led by results:

| IC50 [1] [µM] | inhibition [2] [%] | Ratio IC50 [3] | SMILES |
| --- | --- | --- | --- |
| 10.7 |  |  | CC1=N/C(=C\c2ccc(O)cc2)C(=O)N1CCC(=O)O |
| 3.2 |  |  | CC1=N/C(=C\c2cccc(O)c2)C(=O)N1CC(=O)O |
| 0.36 |  | 6 | CC1=N/C(=C\c2ccc(O)cc2)C(=O)N1CC(=O)O |
| 0.27 |  |  | CC1=N/C(=C\c2ccc(Cl)cc2)C(=O)N1CC(=O)O |
| 0.1 |  |  | CC1=N/C(=C\c2ccc3ccccc3c2)C(=O)N1CC(=O)O |
